Source: patent publication US8058242B2, “Chimeric proteins with natriuretic activity” (The University of Queensland, priority 2004, dated 2011)
Positions of bridges follow the written chain, without caps; N, C: chain ends. Non-standard residues stand in square brackets, D forms with d. No end group written: not given here. pGlu = O=C1CC[C@@H](C(=O)O)N1

Key:
[1] = tested on: conscious rabbits; assay: Blood pressure and heart rate in conscious rabbits, intravenous infusion dose-response (Example 8); conditions: for recovery of MAP, in words: 2 hours after infusion; for MAP at final dose / Recovery (MAP) / Recovery Delta SED (MAP) / Treatment Effect, change of mean blood pressure during the infusion: Table 10B; for Recovery (MAP) / Recovery Delta SED (MAP): after a 2 hour recovery period; for Treatment Effect, change of mean blood pressure during the infusion: final dose, groups 2B and 2C
[2] = tested on: denuded aortic rings, GC A receptor; assay: Relaxation of noradrenaline constricted endothelium-denuded aortic rings (Example 11); design: species or system rat; conditions: GC-A mediated
Experimental: Male Sprague Dawley rats were killed and the descending thoracic aorta rapidly removed and flushed with physiological solution. After being cleared of adhering fat and connective tissue, 5 mm rings were mounted under 10 g resting tension, between two stainless steel hooks, in organ baths (37° C.) containing carbogenated (95% O2 and 5% CO2) physiological salt solution of the following composition (mM): NaCl, 118.4; NaHCO3, 25; glucose, 11; KCl, 4.7; MgSO4, 1.2; KH2PO4, 1.2 and CaCl2, 2.5. The lower hook was attached to a tissue holder and the upper hook to a force displacement transducer (Grass FTO3). Where indicated endothelial cells were removed by gentle rubbing of the intimal surface with a wire. To confirm the presence or absence of endothelial cells, tissues were precontracted with a sub-maximal concentration of phenylephrine (0.3 μM) and the response to acetylcholine (ACh, 10 μM) observed. Ach-induced relaxation greater than 80% of maximum indicated the presence of endothelium; whereas Ach-induced relaxation less than 10% indicated the absence of endothelium. Ring preparations under resting tension were conditioned by two contraction/relaxation cycles with 40 mM KCl, contracted by a third application of 40 mM KCl and then relaxed with different doses of the venom peptides. Responses were expressed as a percentage relaxation of the precontraction by KCl.
In addition to the peptides tested in example 3, a series of 13 analogs corresponding to the 2a, 2b and 2c grouping of peptides were examined for their ability to dilate noradrenaline constricted aortic rings. The degree of constriction was expressed as a percentage of the KCl induced constriction. The aortic rings were prepared in a manner similar to the method described in example 3. […]. In each case there were at least 3 separate aortic rings tested per peptide and all were denuded of endothelium to ensure responses were confined to the GC A receptor.

[3] = biological target: T1, Plasmin (Homo sapiens, UniProt P00747); assay: Stability to enzymatic degradation by plasmin (Examples 7, 16); assay type: in vitro ADME; conditions: plasmin, 37° C.
T1 construct: with 500 ng Endopeptidase (NEP) or 10 μg Plasmin
T1 sequence (P00747 97-580 partner limits assumed, species assumed): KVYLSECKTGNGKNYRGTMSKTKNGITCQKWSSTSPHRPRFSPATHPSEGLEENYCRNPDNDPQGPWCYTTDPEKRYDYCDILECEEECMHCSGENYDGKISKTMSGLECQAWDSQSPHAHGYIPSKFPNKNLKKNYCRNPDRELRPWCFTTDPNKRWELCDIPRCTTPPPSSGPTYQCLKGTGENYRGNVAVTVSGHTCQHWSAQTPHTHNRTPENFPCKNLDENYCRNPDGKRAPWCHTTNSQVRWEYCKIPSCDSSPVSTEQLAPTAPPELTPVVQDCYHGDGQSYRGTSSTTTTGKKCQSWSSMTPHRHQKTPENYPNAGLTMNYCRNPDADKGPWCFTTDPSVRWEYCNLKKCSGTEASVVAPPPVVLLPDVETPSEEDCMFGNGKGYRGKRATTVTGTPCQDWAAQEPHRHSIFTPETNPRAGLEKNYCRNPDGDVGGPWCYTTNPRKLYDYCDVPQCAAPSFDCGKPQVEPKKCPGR
T1 sequence (P00747 581-810 limits assumed, species assumed): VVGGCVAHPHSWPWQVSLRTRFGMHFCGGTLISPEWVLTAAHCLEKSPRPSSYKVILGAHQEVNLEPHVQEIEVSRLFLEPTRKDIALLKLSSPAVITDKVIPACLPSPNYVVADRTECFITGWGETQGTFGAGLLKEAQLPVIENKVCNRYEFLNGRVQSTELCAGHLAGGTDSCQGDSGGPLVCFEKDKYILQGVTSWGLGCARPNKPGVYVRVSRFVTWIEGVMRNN
Experimental: The incubation buffer contained 100 mM Tris/HCl and 150 mM NaCl and the pH was adjusted to 7.2-7.4. In each assay, 100 μl of peptide [500 μM] was incubated with 300 μl buffer (with 500 ng Endopeptidase (NEP) or 10 μg Plasmin) at 37° C. 50 μl aliquots were taken at times 5 min, 30 min, 60 min, 90 min, 180 min and 24 h. The reaction was quenched by heating to 100° C. for 4 min and the remaining peptide concentrations measured by RP-HPLC. Note that the levels of Plasmin required to degrade these peptides was several thousands time the levels present in human plasma.
The stability of TDT and was investigated using the same enzymatic degradation assays (NEP, plasmin, pepsin) disclosed in Example 7. […] It is also evident that the increased NEP stability cannot be explained by the length of the tail region alone as the NEP cleavage site residues at the N-terminal end of the loop region.

[4] = tested on: rats with chronic heart failure; assay: Rat model of chronic heart failure, left coronary artery occlusion, anesthetized (Example 10); conditions: HF rats
[5] = tested on: normal rats; assay: Hemodynamic parameters in normal anesthetized rats (Example 10)
[6] = biological target: T2, Natriuretic Peptide Receptor-A (NPR-A) signaling in MDCK cells (Canis lupus familiaris, UniProt A0A8I3MHU3); assay type: cell-based, canine; conditions: stimulation of cGMP accumulation in MDCK cells
T2 sequence (A0A8I3MHU3 32-1060): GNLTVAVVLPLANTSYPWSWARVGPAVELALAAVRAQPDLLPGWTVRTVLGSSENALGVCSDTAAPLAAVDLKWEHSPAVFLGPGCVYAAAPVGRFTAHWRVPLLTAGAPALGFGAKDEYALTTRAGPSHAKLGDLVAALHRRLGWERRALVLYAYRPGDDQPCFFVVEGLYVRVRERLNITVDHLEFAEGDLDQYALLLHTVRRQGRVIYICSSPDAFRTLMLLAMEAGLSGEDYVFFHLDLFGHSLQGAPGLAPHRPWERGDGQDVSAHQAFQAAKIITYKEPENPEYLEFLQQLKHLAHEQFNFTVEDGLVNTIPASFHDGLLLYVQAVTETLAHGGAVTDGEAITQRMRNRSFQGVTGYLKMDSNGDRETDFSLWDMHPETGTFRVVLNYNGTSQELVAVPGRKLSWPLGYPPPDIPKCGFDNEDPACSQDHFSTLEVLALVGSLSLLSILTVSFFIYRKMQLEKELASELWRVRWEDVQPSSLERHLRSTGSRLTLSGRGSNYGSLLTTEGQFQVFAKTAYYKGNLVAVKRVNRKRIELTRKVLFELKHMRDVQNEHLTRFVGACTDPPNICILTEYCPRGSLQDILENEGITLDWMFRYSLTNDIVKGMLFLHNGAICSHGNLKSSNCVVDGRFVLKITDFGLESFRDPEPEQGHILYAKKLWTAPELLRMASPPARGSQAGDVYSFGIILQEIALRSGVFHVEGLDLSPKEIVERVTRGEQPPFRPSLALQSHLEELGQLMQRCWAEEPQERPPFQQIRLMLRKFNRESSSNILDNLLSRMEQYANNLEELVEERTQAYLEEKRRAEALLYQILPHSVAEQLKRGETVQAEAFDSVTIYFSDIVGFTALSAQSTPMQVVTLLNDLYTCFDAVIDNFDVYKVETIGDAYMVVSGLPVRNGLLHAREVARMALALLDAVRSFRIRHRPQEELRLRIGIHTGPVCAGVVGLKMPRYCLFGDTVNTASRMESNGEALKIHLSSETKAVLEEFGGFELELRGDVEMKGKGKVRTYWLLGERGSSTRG

SDSKISAGCFGFPLDRIGSVSGLGCNRIMQNPPKKFSGE (A portion of a natriuretic peptide) [TNPc A7S6]
recovery of MAP, in words [1]: partially recovered
MAP at final dose [1]: 56.3 mm Hg
Recovery (MAP) [1]: 66.8 mm Hg
Recovery Delta SED (MAP) [1]: 10.5 ± 3.1 mm Hg
Treatment Effect, change of mean blood pressure during the infusion [1]: −12.9 mm Hg
Mean relaxation SEM of denuded aortic rings expressed as % of KCl response [2]: 43.1 ± 8.6%

ZSDSKIGNGCFGFPLDRIGSVSGLGCNRIMQNPPKKFSGE ([pGlu]SDSKIGNGCFGFPLDRIGSVSGLGCNRIMQNPPKKFSGE; disulfide 10-26 (inferred); not fully specified; ends not checked) [TNPc Z0]
recovery of MAP, in words [1]: partially recovered
MAP at final dose [1]: 63.3 mm Hg
Recovery (MAP) [1]: 72.2 mm Hg
Recovery Delta SED (MAP) [1]: 9.0 ± 1.0 mm Hg
Treatment Effect, change of mean blood pressure during the infusion [1]: −11.0 mm Hg
Mean relaxation SEM of denuded aortic rings expressed as % of KCl response [2]: 61.5 ± 5.5%

CC[C@H](C)[C@@H]1NC(=O)[C@H](CCCNC(=N)N)NC(=O)[C@H](CC(=O)O)NC(=O)[C@H](CCSC)NC(=O)[C@H](CCCCN)NC(=O)[C@H](CCCNC(=N)N)NC(=O)CNC(=O)[C@H](Cc2ccccc2)NC(=O)[C@@H](NC(=O)CNC(=O)[C@H](CO)NC(=O)CNC(=O)[C@H](CCC(N)=O)NC(=O)[C@@H](NC(=O)[C@H](CCSC)NC(=O)[C@H](CCCCN)NC(=O)[C@@H]2CCCN2C(=O)[C@@H](N)CO)C(C)C)CSSC[C@@H](C(=O)N[C@@H](CCCCN)C(=O)N[C@H](C(=O)N[C@@H](CC(C)C)C(=O)N[C@@H](CCCNC(=N)N)C(=O)N[C@@H](CCCNC(=N)N)C(=O)N[C@@H](Cc2c[nH]cn2)C(=O)O)C(C)C)NC(=O)CNC(=O)[C@H](CC(C)C)NC(=O)CNC(=O)[C@H](CO)NC(=O)[C@H](CO)NC(=O)[C@H](CO)NC(=O)[C@H](CO)NC1=O [hBNP]
time taken to recover to 50% of the peak response ([1]; bolus injection of 0.24 mg/kg TNPc or equivalent molar dose of BNP): 80 min
half-life at 125 μM ([3]; plasmin in Tris/HCl-NaCl buffer, read-out: HalfLife in plasmin): 13.1 min
K (one phase exponential decay, best fit values) [3]: 0.053
PLATEAU (one phase exponential decay, best fit values) [3]: 0.03403
SPAN (one phase exponential decay, best fit values) [3]: 0.9926
Blood Flow, mean change from control ([4]; 50 pmol/kg/min, 30 min): -1.6 mL/min
Conductance, mean change from control ([4]; 50 pmol/kg/min, 30 min): −0.3 ml/min/mmHg
Diastolic LVP, mean change from control ([4]; 50 pmol/kg/min, 30 min): −0.7 mmHg
HCT, mean change from control ([4]; 50 pmol/kg/min, 30 min): 1.9%
HR, mean change from control ([4]; 50 pmol/kg/min, 30 min): −12.3 bpm
Mean BP, mean change from control ([4]; 50 pmol/kg/min, 30 min): −9.6 mmHg
Urine Flow, mean change from control ([4]; 50 pmol/kg/min, 30 min): 0.8 mL/h
Blood Flow, mean change from control ([4]; 100 pmol/kg/min, 30 min): -2.9 mL/min
Conductance, mean change from control ([4]; 100 pmol/kg/min, 30 min): 0.2 ml/min/mmHg
Diastolic LVP, mean change from control ([4]; 100 pmol/kg/min, 30 min): −1.2 mmHg
HCT, mean change from control ([4]; 100 pmol/kg/min, 30 min): 0.3%
HR, mean change from control ([4]; 100 pmol/kg/min, 30 min): −40.5 bpm
Mean BP, mean change from control ([4]; 100 pmol/kg/min, 30 min): −26.5 mmHg
Urine Flow, mean change from control ([4]; 100 pmol/kg/min, 30 min): 0.7 mL/h
Blood Flow, mean change from control ([4]; Recovery): -1.0 mL/min
Conductance, mean change from control ([4]; Recovery): 0.5 ml/min/mmHg
Diastolic LVP, mean change from control ([4]; Recovery): 1.9 mmHg
HCT, mean change from control ([4]; Recovery): −1.3%
HR, mean change from control ([4]; Recovery): −41.7 bpm
Mean BP, mean change from control ([4]; Recovery): −14.6 mmHg
Urine Flow, mean change from control ([4]; Recovery): -0.2 mL/h
Blood Flow, Average drug response SED ([4]; average of the two doses): -2.2 ± 0.4 mL/min
Conductance, Average drug response SED ([4]; average of the two doses): −0.1 ± 0.3 ml/min/mmHg
Diastolic LVP, Average drug response SED ([4]; average of the two doses): −1.0±1.0 mmHg
HCT, Average drug response SED ([4]; average of the two doses): 1.1 ± 0.8%
HR, Average drug response SED ([4]; average of the two doses): −26.4 ± 23.0 bpm
Mean BP, Average drug response SED ([4]; average of the two doses): −18.1±6.3 mmHg
Urine Flow, Average drug response SED ([4]; average of the two doses): 0.7 ± 0.3 mL/h
Blood Flow, mean change from control ([5]; 50 pmol/kg/min, 30 min): -1.9 mL/min
Conductance, mean change from control ([5]; 50 pmol/kg/min, 30 min): −1.1 ml/min/mmHg
Diastolic LVP, mean change from control ([5]; 50 pmol/kg/min, 30 min): −0.1 mmHg
HCT, mean change from control ([5]; 50 pmol/kg/min, 30 min): 1.0%
HR, mean change from control ([5]; 50 pmol/kg/min, 30 min): −16.6 BPM
Mean BP, mean change from control ([5]; 50 pmol/kg/min, 30 min): −6.4 mmHg
Urine Flow, mean change from control ([5]; 50 pmol/kg/min, 30 min): 0.2 mL/h
Blood Flow, mean change from control ([5]; 100 pmol/kg/min, 30 min): -2.6 mL/min
Conductance, mean change from control ([5]; 100 pmol/kg/min, 30 min): −1.2 ml/min/mmHg
Diastolic LVP, mean change from control ([5]; 100 pmol/kg/min, 30 min): 0.1 mmHg
HCT, mean change from control ([5]; 100 pmol/kg/min, 30 min): 3.5%
HR, mean change from control ([5]; 100 pmol/kg/min, 30 min): −5.3 BPM
Mean BP, mean change from control ([5]; 100 pmol/kg/min, 30 min): −14.9 mmHg
Urine Flow, mean change from control ([5]; 100 pmol/kg/min, 30 min): 0.7 mL/h
Blood Flow, mean change from control ([5]; Recovery): -3.6 mL/min
Conductance, mean change from control ([5]; Recovery): −1.3 ml/min/mmHg
Diastolic LVP, mean change from control ([5]; Recovery): −0.2 mmHg
HCT, mean change from control ([5]; Recovery): −0.3%
HR, mean change from control ([5]; Recovery): 1.3 BPM
Mean BP, mean change from control ([5]; Recovery): −14.1 mmHg
Urine Flow, mean change from control ([5]; Recovery): 0.6 mL/h
Blood Flow, Average drug response SED ([5]; average of the two doses): -2.2 ± 1.0 mL/min
Conductance, Average drug response SED ([5]; average of the two doses): −1.1 ± 0.4 ml/min/mmHg
Diastolic LVP, Average drug response SED ([5]; average of the two doses): 0.0 ± 0.3 mmHg
HCT, Average drug response SED ([5]; average of the two doses): 2.2 ± 0.6%
HR, Average drug response SED ([5]; average of the two doses): −10.9 ± 7.1 BPM
Mean BP, Average drug response SED ([5]; average of the two doses): −10.7 ± 4.7 mmHg
Urine Flow, Average drug response SED ([5]; average of the two doses): 0.5 ± 0.4 mL/h
−Log10 EC50 (pEC50) ± Standard Error [6]: 9.165 ± 0.1039
EC50 ([6]; read-out: EC50 (M) ± Standard Error): 9.07e-10 M
